What was measured:
[1] = molecular target: hGYS1 enzyme (recombinant hGYS1/GN1 protein) (Homo sapiens (Human), UniProt P13807); experiment: GYS1 coupled enzyme assay (PK/LDH); format: biochemical; conditions: hGYS1/GN1 50 nM, UDP-Glucose 0.8 mM, G6P 1 mM; geometric mean of at least 2 runs
[2] = system: hGYS1 enzyme / glycogen synthesis in HeLa cells; experiment: GYS1 cell based assay (glycogen synthesis, Glucose-glo); set-up: species or system human; conditions: Homo sapiens, HeLa, 24 h, 24 h incubation, 20 mM glucose, geometric mean of at least 2 runs
In short: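 HeLa cells starved 24 h in medium containing only 1× Glutamax were plated onto compound in medium with 20 mM glucose (1% DMSO final) for 24 h, 37 °C, 5% CO2. Acid lysates were Tris-quenched, glucoamylase-digested (pH 5.3, 1 h, 37 °C) and read by Glucose-glo luminescence. IC50 came from Hill fits, as geometric mean of ≥2 runs.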

hGYS1 enzyme (recombinant hGYS1/GN1 protein), sequence (P13807 whole entry): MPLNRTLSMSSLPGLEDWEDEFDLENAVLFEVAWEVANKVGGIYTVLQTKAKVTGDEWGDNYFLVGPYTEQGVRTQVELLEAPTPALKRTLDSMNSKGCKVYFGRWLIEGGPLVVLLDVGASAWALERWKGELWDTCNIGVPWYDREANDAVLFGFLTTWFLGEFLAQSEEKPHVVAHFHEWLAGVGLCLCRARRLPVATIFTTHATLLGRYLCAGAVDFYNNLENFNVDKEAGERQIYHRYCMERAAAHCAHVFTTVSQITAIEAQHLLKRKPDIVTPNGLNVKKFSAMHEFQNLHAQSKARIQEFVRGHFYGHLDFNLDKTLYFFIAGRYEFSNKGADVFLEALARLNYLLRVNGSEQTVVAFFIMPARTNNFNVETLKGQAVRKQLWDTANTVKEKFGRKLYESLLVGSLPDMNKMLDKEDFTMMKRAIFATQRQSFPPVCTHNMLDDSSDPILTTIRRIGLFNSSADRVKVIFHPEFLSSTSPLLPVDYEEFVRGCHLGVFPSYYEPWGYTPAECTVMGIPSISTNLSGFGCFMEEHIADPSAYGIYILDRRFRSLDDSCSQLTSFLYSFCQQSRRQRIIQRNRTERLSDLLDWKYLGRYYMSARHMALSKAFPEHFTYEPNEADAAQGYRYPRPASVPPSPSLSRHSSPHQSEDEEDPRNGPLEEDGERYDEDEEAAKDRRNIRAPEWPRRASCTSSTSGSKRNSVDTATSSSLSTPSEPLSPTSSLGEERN
hGYS1 enzyme (recombinant hGYS1/GN1 protein), sequence (P46976 whole entry partner): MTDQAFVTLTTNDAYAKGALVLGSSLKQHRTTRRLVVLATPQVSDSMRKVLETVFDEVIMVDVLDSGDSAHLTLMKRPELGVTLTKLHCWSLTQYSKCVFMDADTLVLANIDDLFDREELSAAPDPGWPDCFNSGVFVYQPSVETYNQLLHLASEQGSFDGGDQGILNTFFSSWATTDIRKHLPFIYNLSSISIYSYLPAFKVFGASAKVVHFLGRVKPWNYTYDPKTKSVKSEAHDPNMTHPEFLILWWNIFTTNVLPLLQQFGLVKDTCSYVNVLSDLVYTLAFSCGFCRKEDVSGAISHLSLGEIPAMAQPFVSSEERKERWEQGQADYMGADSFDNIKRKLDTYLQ

Row | SMILES | IC50 [1] | IC50 [2]
1 | O=C(N[C@@H](c1ccccc1)c1ccc(C2CC2)c(F)n1)[C@@H]1C[C@@H](F)CN1C(=O)Cc1c[nH]c(=O)cn1 [Compound 746, (2S,4R)-N-[(S)-(5-cyclopropyl-6-fluoropyridin-2-yl)(phenyl)methyl]-4-fluoro-1-[2-(5-oxo-4,5-dihydropyrazin-2-yl)acetyl]pyrrolidine-2-carboxamide] | 0.07 µM | 1.62 µM
2 | CCN(CC)c1cnnn1CC(=O)N1C[C@H](F)C[C@H]1C(=O)N[C@@H](c1ccccc1)c1ccc(C2CC2)c(F)n1 [Compound 748, (2S,4R)-N-[(S)-(5-cyclopropyl-6-fluoropyridin-2-yl)(phenyl)methyl]-1-{2-[5-(diethylamino)-1H-1,2,3-triazol-1-yl]acetyl}-4-fluoropyrrolidine-2-carboxamide] | 0.015 µM | 0.53 µM
3 | Cn1cc(CC(=O)N2C[C@H](F)C[C@H]2C(=O)N[C@@H](c2ccccc2)c2ccc(C3CC3)c(F)n2)c(C(F)F)n1 [Compound 749, (2S,4R)-N-[(S)-(5-cyclopropyl-6-fluoropyridin-2-yl)(phenyl)methyl]-1-{2-[3-(difluoromethyl)-1-methyl-1H-pyrazol-4-yl]acetyl}-4-fluoropyrrolidine-2-carboxamide] | 0.006 µM | 0.25 µM
4 | Cn1ncc(CC(=O)N2C[C@H](F)C[C@H]2C(=O)N[C@@H](c2ccccc2)c2ccc(C3CC3)c(F)n2)c1C(F)F [Compound 751, (2S,4R)-N-[(S)-(5-cyclopropyl-6-fluoropyridin-2-yl)(phenyl)methyl]-1-{2-[5-(difluoromethyl)-1-methyl-1H-pyrazol-4-yl]acetyl}-4-fluoropyrrolidine-2-carboxamide] | 0.013 µM | 0.47 µM
5 | Cc1cc(C(F)F)nn1CC(=O)N1C[C@H](F)C[C@H]1C(=O)N[C@@H](c1ccccc1)c1ccc(C2CC2)c(F)n1 [Compound 752, (2S,4R)-N-[(S)-(5-cyclopropyl-6-fluoropyridin-2-yl)(phenyl)methyl]-1-{2-[3-(difluoromethyl)-5-methyl-1H-pyrazol-1-yl]acetyl}-4-fluoropyrrolidine-2-carboxamide] | 0.021 µM | 0.64 µM
6 | CCn1ccnc(CC(=O)N2C[C@H](F)C[C@H]2C(=O)N[C@@H](c2ccccc2)c2ccc(C3CC3)c(F)n2)c1=O [Compound 753, (2S,4R)-N-[(S)-(5-cyclopropyl-6-fluoropyridin-2-yl)(phenyl)methyl]-1-[2-(4-ethyl-3-oxo-3,4-dihydropyrazin-2-yl)acetyl]-4-fluoropyrrolidine-2-carboxamide] | 0.021 µM | 0.32 µM
7 | O=C(N[C@@H](c1ccccc1)c1ccc(C2CC2)c(F)n1)[C@@H]1C[C@@H](F)CN1C(=O)Cn1nnnc1C(F)(F)F [Compound 755, (2S,4R)-N-[(S)-(5-cyclopropyl-6-fluoropyridin-2-yl)(phenyl)methyl]-4-fluoro-1-{2-[5-(trifluoromethyl)-1H-1,2,3,4-tetrazol-1-yl]acetyl}pyrrolidine-2-carboxamide] | 0.102 µM | 1.06 µM
8 | O=C(N[C@@H](c1ccccc1)c1ccc(C2CC2)c(F)n1)[C@@H]1C[C@@H](F)CN1C(=O)Cc1[nH]nnc1C(F)F [Compound 756, (2S,4R)-N-[(S)-(5-cyclopropyl-6-fluoropyridin-2-yl)(phenyl)methyl]-1-{2-[4-(difluoromethyl)-1H-1,2,3-triazol-5-yl]acetyl}-4-fluoropyrrolidine-2-carboxamide] | 0.023 µM | 1.7 µM
9 | O=C(N[C@@H](c1ccccc1)c1ccc(C2CC2)c(F)n1)[C@@H]1C[C@@H](F)CN1C(=O)Cn1nccc1C(F)(F)F [Compound 760, (2S,4R)-N-[(S)-(5-cyclopropyl-6-fluoropyridin-2-yl)(phenyl)methyl]-4-fluoro-1-{2-[5-(trifluoromethyl)-1H-pyrazol-1-yl]acetyl}pyrrolidine-2-carboxamide] | 0.017 µM | 0.37 µM
10 | CC(C)c1ccc([C@@H](NC(=O)[C@@H]2C[C@@H](F)CN2C(=O)Cc2[nH]nnc2N(C)C)c2ccccc2)cc1F [Compound 775, (2S,4R)-1-{2-[4-(dimethylamino)-1H-1,2,3-triazol-5-yl]acetyl}-4-fluoro-N-[(S)-[3-fluoro-4-(propan-2-yl)phenyl](phenyl)methyl] pyrrolidine-2-carboxamide] | 1.08 µM | > 17.5 µM
11 | CCn1cc(CC(=O)N2C[C@H](F)C[C@H]2C(=O)N[C@@H](c2ccccc2)c2ccc(C(C)C)c(F)n2)cc(C)c1=O [Compound 796, (2S,4R)-1-[2-(1-ethyl-5-methyl-6-oxo-1,6-dihydropyridin-3-yl)acetyl]-4-fluoro-N-[(S)-[6-fluoro-5-(propan-2-yl)pyridin-2-yl](phenyl)methyl] pyrrolidine-2-carboxamide] | 0.005 µM | 0.11 µM
12 | CCOc1ncc(CC(=O)N2C[C@H](F)C[C@H]2C(=O)N[C@@H](c2ccccc2)c2ccc(C(C)C)c(F)n2)cc1C [Compound 798, (2S,4R)-1-[2-(6-ethoxy-5-methylpyridin-3-yl)acetyl]-4-fluoro-N-[(S)-[6-fluoro-5-(propan-2-yl)pyridin-2-yl](phenyl)methyl] pyrrolidine-2-carboxamide] | 0.012 µM | 0.22 µM
13 | CCn1cc(C)cc(CC(=O)N2C[C@H](F)C[C@H]2C(=O)N[C@@H](c2ccccc2)c2ccc(C(C)C)c(F)n2)c1=O [Compound 799, (2S,4R)-1-[2-(1-ethyl-5-methyl-2-oxo-1,2-dihydropyridin-3-yl)acetyl]-4-fluoro-N-[(S)-[6-fluoro-5-(propan-2-yl)pyridin-2-yl](phenyl)methyl] pyrrolidine-2-carboxamide] | 0.004 µM | 0.1 µM
14 | Cc1cc(C(F)F)n(CC(=O)N2C[C@H](F)C[C@H]2C(=O)N[C@@H](c2ccccc2)c2ccc(C(C)C)c(F)n2)n1 [Compound 803, (2S,4R)-1-{2-[5-(difluoromethyl)-3-methyl-1H-pyrazol-1-yl]acetyl}-4-fluoro-N-[(S)-[6-fluoro-5-(propan-2-yl)pyridin-2-yl](phenyl)methyl] pyrrolidine-2-carboxamide] | 0.004 µM | 0.08 µM

The remaining compounds from weak to strong by IC50 [1], led by results:

Row | IC50 [1] | IC50 [2] | SMILES
15 | 0.032 µM | 1.16 µM | O=C(N[C@@H](c1ccccc1)c1ccc(C2CC2)c(F)n1)[C@@H]1C[C@@H](F)CN1C(=O)Cn1nncc1N1CC(F)(F)C1 [Compound 758, (2S,4R)-N-[(S)-(5-cyclopropyl-6-fluoropyridin-2-yl)(phenyl)methyl]-1-{2-[5-(3,3-difluoroazetidin-1-yl)-1H-1,2,3-triazol-1-yl]acetyl}-4-fluoropyrrolidine-2-carboxamide]
16 | 0.029 µM | 0.4 µM | Cn1cc(C(F)F)c(CC(=O)N2C[C@H](F)C[C@H]2C(=O)N[C@@H](c2ccccc2)c2ccc(C3CC3)c(F)n2)n1 [Compound 757, (2S,4R)-N-[(S)-(5-cyclopropyl-6-fluoropyridin-2-yl)(phenyl)methyl]-1-{2-[4-(difluoromethyl)-1-methyl-1H-pyrazol-3-yl]acetyl}-4-fluoropyrrolidine-2-carboxamide]
17 | 0.027 µM | 0.42 µM | Cn1ncc(C(F)F)c1CC(=O)N1C[C@H](F)C[C@H]1C(=O)N[C@@H](c1ccccc1)c1ccc(C2CC2)c(F)n1 [Compound 754, (2S,4R)-N-[(S)-(5-cyclopropyl-6-fluoropyridin-2-yl)(phenyl)methyl]-1-{2-[4-(difluoromethyl)-1-methyl-1H-pyrazol-5-yl]acetyl}-4-fluoropyrrolidine-2-carboxamide]
18 | 0.018 µM | 0.59 µM | O=C(N[C@@H](c1ccccc1)c1ccc(C2CC2)c(F)n1)[C@@H]1C[C@@H](F)CN1C(=O)Cn1cnnc1C(F)F [Compound 759, (2S,4R)-N-[(S)-(5-cyclopropyl-6-fluoropyridin-2-yl)(phenyl)methyl]-1-{2-[3-(difluoromethyl)-4H-1,2,4-triazol-4-yl]acetyl}-4-fluoropyrrolidine-2-carboxamide]
19 | 0.016 µM | 0.42 µM | O=C(N[C@@H](c1ccccc1)c1ccc(C2CC2)c(F)n1)[C@@H]1C[C@@H](F)CN1C(=O)Cn1nncc1C(F)F [Compound 747, (2S,4R)-N-[(S)-(5-cyclopropyl-6-fluoropyridin-2-yl)(phenyl)methyl]-1-{2-[5-(difluoromethyl)-1H-1,2,3-triazol-1-yl]acetyl}-4-fluoropyrrolidine-2-carboxamide]
20 | 0.016 µM | 0.29 µM | CCn1cc(CC(=O)N2C[C@H](F)C[C@H]2C(=O)N[C@@H](c2ccccc2)c2ccc(C(C)C)c(F)n2)ncc1=O [Compound 797, (2S,4R)-1-[2-(4-ethyl-5-oxo-4,5-dihydropyrazin-2-yl)acetyl]-4-fluoro-N-[(S)-[6-fluoro-5-(propan-2-yl)pyridin-2-yl](phenyl)methyl] pyrrolidine-2-carboxamide]
21 | 0.011 µM | 0.26 µM | Cc1cc(C(F)F)n(CC(=O)N2C[C@H](F)C[C@H]2C(=O)N[C@@H](c2ccccc2)c2ccc(C3CC3)c(F)n2)n1 [Compound 750, (2S,4R)-N-[(S)-(5-cyclopropyl-6-fluoropyridin-2-yl)(phenyl)methyl]-1-{2-[5-(difluoromethyl)-3-methyl-1H-pyrazol-1-yl]acetyl}-4-fluoropyrrolidine-2-carboxamide]
22 | 0.009 µM | 0.37 µM | CC(C)c1ccc([C@@H](NC(=O)[C@@H]2C[C@@H](F)CN2C(=O)Cc2c[nH]c(=O)cn2)c2ccccc2)nc1F [Compound 802, (2S,4R)-4-fluoro-N-[(S)-[6-fluoro-5-(propan-2-yl)pyridin-2-yl](phenyl)methyl]-1-[2-(5-oxo-4,5-dihydropyrazin-2-yl)acetyl]pyrrolidine-2-carboxamide]

From patent US11814367B2, “Inhibitors of glycogen synthase 1 (GYS1) and methods of use thereof” (Maze Therapeutics, Inc., priority 2021, dated 2023)
